Measured values as given in US20100235931A1, “Novel Neurological Function of mPKCI” (priority 2006, published 2010).
Entries after “also recorded” stand apart in the source; their conditions may differ.

Assays:
mPKCI WT and KO mice = assay: Locomotor activity measurement (open field, ambulation and stereotypy); assay type: in vivo
Method: The generation of PKCI^−/− mice was described previously (Su et al, 2003, supra). PKCI^−/− mice and their wild type littermates were derived by breeding heterozygous […] mice for altered PKCI allele (Hint1) and genotype of the animals was confirmed by PCR of DNA from tail biopsies. Animals were housed 4-6/cage, maintained under standard laboratory condition with food and water provided ad libitum. The male animals were tested between 10-20 weeks of age. Wild type and PKCI^−/− groups were matched for age in all experiments. All studies were conducted with an approved protocol from University of Maryland, School of Pharmacy IACUC.
Mice locomotor activity was monitored during an open field test using “Activity Monitor” chambers (27×27×20.3 cm) associated with the Activity Monitor software (Med Associates Inc St Albans Vt.). Room temperature was set at 23° C.+/−2° C. Horizontal spontaneous locomotion activity, scored as ambulatory counts and stereotypic movements (Sanberg P. R. et al 1987, Pharmacol. Biochem. Behav. 27, 569-72), was recorded during the first 30 min of acclimatization to the novel environment and during 120 min following the treatment. The animals were acclimated to a 12 h cycle light/dark phase with the light on at 7:00 am before the experiments. Tests were performed during the light phase of the cycle between 8:00 am to 3:00 pm. AMPH or other drugs was prepared freshly before each experiment by dissolving in saline (NaCl 0.9%) and administered via intra peritoneal in a total volume of 10 ml/kg at the indicated doses.

[1] = test system: PKCI/HINT1 WT and KO mice; assay: Tail suspension test, effect of haloperidol; assay type: in vivo
Description: In order to confirm the results of the forced swim test while removing any bias introduced by the animal's swimming or learning capacity, we used the tail suspension test. This test assesses depression trait using coping behavior in a stressful situation (Cryan J F et al., 2005, Neruosc. Behav. Rev. 29, 571-625). The animals are exposed to a […] stress of being hung in an uncontrollable fashion by the tail for six minutes. Immobility, considered as a depression trait when the animal gives up any escape, is reported in seconds. Data are expressed as mean+/−SEM and analyzed using a 2 way ANOVA (age×genotype) followed by Bonferroni when p<0.05.
Haloperidol 0.05 mg/kg and 0.1 mg/kg were administered via intra-peritoneal (10 ml/kg) 30 minutes before the test. Data are expressed as mean+/−SEM and analyzed using a 2 way ANOVA (treatment×genotype) followed by Bonferroni when p<0.05.

mice [2] = conditions: previously described; cited from earlier work
[3] = test system: extracellular DA in nucleus accumbens and caudate-putamen of mPKCI WT and KO mice; assay: In vivo microdialysis, amphetamine-evoked extracellular DA; conditions: 2.5 mg/kg ip, conventional microdialysis, FIG. 4
Method: PKCI^−/− mice and their WT controls were anesthetized and implanted unilaterally with a microdialysis guide cannula (CMA/11, CMA microdialysis) in the nucleus accumbens (AP: +1.5, L: −0.8, V: −3.8 from bregma) or the dorsal striatum (AP: +0.4, L−2.1, V−2.2 from bregma) using standard stereotaxic techniques, and allowed to recover for 5 days prior to the microdialysis experiment as described. […]
For no net flux experiments, five different concentrations of DA (0, 5, 10, 20 and 40 nM) in aCSF were perfused in random order through the dialysis probe. […] The DA content was determined by HPLC coupled to electrochemical detection with an external standard. All the samples were analyzed within 48 hours of collection. […] No net flux data was analyzed as described (Chefer et al 2006, supra). The net flux of DA through the probe (DAin-DAout) was calculated and plotted against the concentration of DA perfused (DAin). The following parameters were calculated from the resulting linear function. […] In the conventional microdialysis experiments investigating the effects of amphetamine, the average of the three baseline samples was calculated, and all the DA concentrations were expressed as % of baseline. […]

PKCI KO mice = assay: Conditional place preference test; assay type: in vivo; conditions: preliminary data
Description: Finally, we are looking at the involvement of PKCI in the rewarding function in PKCI KO mice. In this study, we are testing the response of the KO mice to the reward action of amphetamine and cocaine by using conditional place preference test.

mice [4] = conditions: 10 mg/kg dose; cited from earlier work

CN1CCc2cccc3c2[C@H]1Cc1ccc(O)c(O)c1-3 [apomorphine]
locomotor activity (total ambulation and stereotyped behavior), KO compared with WT (mPKCI WT and KO mice; apomorphine 10 mg/kg i.p., FIG. 5): significantly higher locomotor activity as compared with WT

O=C(CCCN1CCC(O)(c2ccc(Cl)cc2)CC1)c1ccc(F)cc1 [Haloperidol]
immobility compared with saline treatment ([1]; 0.05 mg/kg and 0.1 mg/kg i.p. 30 minutes before the test, WT and KO, FIG. 8): increased immobility in both WT and KO animals
increase in immobility in KO mice relative to WT level ([1]; 0.1 mg/kg, 3 months and 15 months old): reaching the level attained by WT animals
mice immobility in the tail suspension test (mice [2]): increase mice immobility

C[C@H](N)Cc1ccccc1 [amphetamine, D-amphetamine]
effect on locomotion (mPKCI WT and KO mice; AMPH 2.5 mg/kg i.p., 120 min after treatment, WT and KO mice, FIG. 2): increased locomotion in both WT and KO animals
amphetamine-evoked locomotor response, PKCI KO compared with WT (mPKCI WT and KO mice; AMPH 2.5 mg/kg i.p., KO vs WT): three times more
increase in amphetamine-evoked activity in mPKCI KO mice, dose response (mPKCI WT and KO mice; D-AMPH 1.25, 2.5 and 5 mg/kg i.p., FIG. 3): consistent across a range of amphetamine doses
amphetamine-evoked DA response, WT vs KO [3]: No significant difference between WT and KO mice; also recorded: did not differ in WT and KO animals
response of KO mice to reward action (PKCI KO mice): higher response

CN1CC[C@]23c4c5ccc(O)c4O[C@H]2[C@@H](O)C=C[C@H]3[C@H]1C5 [morphine]
effect on locomotor activity (mPKCI WT and KO mice; morphine 10 mg/kg i.p., 120 min after treatment, WT and KO mice, FIG. 2): did not promote increase in locomotor activity; also recorded: depressive locomotor effect on both wild type and knockout mice
locomotion (mice [4]): a decrease in locomotion was often observed
